From patent US20260356856A1, “KRAS G12S AND G12C INHIBITORS” (MIRATI THERAPEUTICS, INC., priority 2023, published 2026) come the findings set out here.

Structures are written as SMILES.

One experiment concerns the target T1, KRas WT (Homo sapiens, UniProt P01116).
T1 construct: Biotinylated KRas (corresponding to amino acids 1-169, produced at Accelegan Inc.); biotin (biotinylated); purchased Accelegan Inc
Kind of experiment: KRas binding assay, TR-FRET displacement of Cy5 labelled tracer. To be noted: 60-minute incubation at room temperature, 1% DMSO, pH 7.5. A digest of the protocol: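 Biotinylated KRas (aa 1-169) incubated with Cy5-labelled tracer, terbium streptavidin and compound (1% DMSO final) in 50 mM HEPES pH 7.5, 5 mM MgCl2, 0.005% Tween-20, 1 mM DTT. Tracer displacement read by TR-FRET after 60 min at room temperature; POC values fitted to 4-parameter IC50 equation.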

The next experiment deals with T2, KRas G12S (Homo sapiens, UniProt P01116, G12S).
T2 construct: Biotinylated KRas (corresponding to amino acids 1-169, produced at Accelegan Inc.); biotin (biotinylated); purchased Accelegan Inc
The experiment is described as above. The settings on record: 60-minute incubation at room temperature, 1% DMSO, pH 7.5. A digest of the protocol:
(§1)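 Displacement measured on KRas residues 1-169 (biotinylated, terbium-streptavidin labelled); 1 h, RT; 1% DMSO final; HEPES pH 7.5 / MgCl2 / Tween-20 / DTT. IC50: 4-parameter fit.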

A further experiment concerns the target T3, KRas G12C (Homo sapiens, UniProt P01116, G12C).
T3 construct: Biotinylated KRas (corresponding to amino acids 1-169, produced at Accelegan Inc.); biotin (biotinylated); purchased Accelegan Inc
The experiment is described as above. To be noted: 60-minute incubation at room temperature, 1% DMSO, pH 7.5. A digest of the protocol:
as §1

Experiment [1] addresses T4, KRas-mediated phosphorylation of ERK in H358 cells (Homo sapiens, UniProt P01116, G12C).
T4 construct: pERK HTRF read-out
The experiment can be described thus: Inhibition of KRas-mediated phosphorylation of ERK (HTRF), H358 cells. To be noted: HTRF pERK, 3 h incubation. The class given is cell-based.

Experiment [2] addresses T5, KRas-mediated phosphorylation of ERK in A549 cells (Homo sapiens, UniProt P01116, G12S).
T5 construct: pERK HTRF read-out
The experiment can be described thus: Inhibition of KRas-mediated phosphorylation of ERK (HTRF), A549 cells. The class given is cell-based. To be noted: HTRF pERK, 3 h incubation.

The target in experiment [3] is T6, KRas-mediated phosphorylation of ERK in MKN1 cells (Homo sapiens, UniProt P01116).
T6 construct: pERK HTRF read-out
The experiment can be described thus: Inhibition of KRas-mediated phosphorylation of ERK (HTRF), MKN1 cells. To be noted: MKN1 cells (KRas WT); HTRF pERK; 3 h incubation. The class given is cell-based. On the procedure:
Inhibition of KRas Phosphorylation of ERK (HTRF) by Exemplary Compounds of Formula (Ia) or (Ib)
Cisbio HTRF Advanced pERK Assay Catalog #64AERPEH • Cells: MKN1, PSN1 • Procedure: • 1. Day 1: Seed 6,000 cells/well −25 μl/well in 384-well white solid bottom plate; RPM1_10% FBS. Incubate overnight at 37 °C/5% CO2. • 2.

T3 sequence (P01116 1-169 isoform P01116-2 G12C): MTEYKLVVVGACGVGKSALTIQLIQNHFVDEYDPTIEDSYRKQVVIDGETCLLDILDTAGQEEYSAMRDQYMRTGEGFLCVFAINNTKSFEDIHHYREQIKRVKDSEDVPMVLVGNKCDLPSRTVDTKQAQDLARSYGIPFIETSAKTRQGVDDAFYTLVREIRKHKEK
T6 sequence (P01116 1-188 isoform P01116-2): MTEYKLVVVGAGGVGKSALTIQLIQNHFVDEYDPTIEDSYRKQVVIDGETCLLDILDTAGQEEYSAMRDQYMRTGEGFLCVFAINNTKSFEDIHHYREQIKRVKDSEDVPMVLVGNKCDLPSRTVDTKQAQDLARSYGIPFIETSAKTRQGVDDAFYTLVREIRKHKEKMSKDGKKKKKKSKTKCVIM
T4 sequence (P01116 1-188 isoform P01116-2 G12C): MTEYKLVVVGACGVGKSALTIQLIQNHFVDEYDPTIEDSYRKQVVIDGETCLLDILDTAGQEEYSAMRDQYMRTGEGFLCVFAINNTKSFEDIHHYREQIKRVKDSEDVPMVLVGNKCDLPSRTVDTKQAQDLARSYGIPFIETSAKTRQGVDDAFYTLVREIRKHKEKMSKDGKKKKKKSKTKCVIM
T5 sequence (P01116 1-188 isoform P01116-2 G12S): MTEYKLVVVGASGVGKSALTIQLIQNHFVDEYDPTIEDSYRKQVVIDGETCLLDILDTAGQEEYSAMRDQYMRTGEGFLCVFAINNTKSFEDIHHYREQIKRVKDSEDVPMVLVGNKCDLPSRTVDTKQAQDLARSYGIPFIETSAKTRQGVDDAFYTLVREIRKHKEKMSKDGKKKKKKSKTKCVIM
T1 sequence (P01116 1-169 isoform P01116-2): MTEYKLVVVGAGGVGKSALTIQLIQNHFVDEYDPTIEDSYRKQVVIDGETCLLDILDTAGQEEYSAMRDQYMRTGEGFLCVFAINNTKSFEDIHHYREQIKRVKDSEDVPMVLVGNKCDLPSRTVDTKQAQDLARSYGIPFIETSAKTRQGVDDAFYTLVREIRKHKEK
T2 sequence (P01116 1-169 isoform P01116-2 G12S): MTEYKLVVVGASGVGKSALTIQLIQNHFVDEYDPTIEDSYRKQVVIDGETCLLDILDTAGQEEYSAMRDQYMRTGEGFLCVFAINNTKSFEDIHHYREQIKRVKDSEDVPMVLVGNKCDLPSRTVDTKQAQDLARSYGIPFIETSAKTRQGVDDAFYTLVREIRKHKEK

Regarding `CCc1c(F)ccc2cc(O)cc(-c3ncc4c(N5CCC(C=O)CC5)nc(OC[C@@]56CCCN5C[C@H](F)C6)nc4c3F)c12` [Example 15, 1-(7-(8-ethyl-7-fluoro-3-hydroxynaphthalen-1-yl)-8-fluoro-2-(((2R,7aS)-2-fluorotetrahydro-1H-pyrrolizin-7a(5H)-yl)methoxy)pyrido[4,3-d]pyrimidin-4-yl)piperidine-4-carbaldehyde], the IC50 at KRas WT was 11 nM; on KRas G12S, 9 nM; at KRas G12C it was below 2 nM; in experiment [1], 22 nM; in experiment [2], 149 nM.

As for `CCc1c(F)ccc2cc(O)cc(-c3ncc4c(N5CCC(C(=O)Oc6ccc(F)c(F)c6)CC5)nc(OC[C@@]56CCCN5C[C@H](F)C6)nc4c3F)c12` [Example 40, 3,4-difluorophenyl 1-(7-(8-ethyl-7-fluoro-3-hydroxynaphthalen-1-yl)-8-fluoro-2-(((2R,7aS)-2-fluorotetrahydro-1H-pyrrolizin-7a(5H)-yl)methoxy)pyrido[4,3-d]pyrimidin-4-yl)piperidine-4-carboxylate], the 50% inhibitory concentration (IC50) is 729 nM on KRas WT; 1250 nM at KRas G12S; 9 nM on KRas G12C; 913 nM in experiment [1]; above 10000 nM in experiment [2].

Take `CCc1c(F)ccc2cc(O)cc(-c3ncc4c(N5CCC(C(=O)n6ccc(C)n6)C5)nc(OC[C@@]56CCCN5C[C@H](F)C6)nc4c3F)c12` (stereo partly drawn) [Example 56, (1-(7-(8-ethyl-7-fluoro-3-hydroxynaphthalen-1-yl)-8-fluoro-2-(((2R,7aS)-2-fluorotetrahydro-1H-pyrrolizin-7a(5H)-yl)methoxy)pyrido[4,3-d]pyrimidin-4-yl)pyrrolidin-3-yl)(3-methyl-1H -pyrazol-1-yl)methanone]: the IC50 stood at 69 nM at KRas WT; 17 nM on KRas G12S; 13 nM on KRas G12C; 2800 nM in experiment [1]; 66 nM in experiment [2].

In the case of `CCc1c(F)ccc2cc(O)cc(-c3ncc4c(N5CCN(C(=O)n6cccn6)CC5)nc(OC[C@@]56CCCN5C[C@H](F)C6)nc4c3F)c12` [Example 60, (4-(7-(8-ethyl-7-fluoro-3-hydroxynaphthalen-1-yl)-8-fluoro-2-(((2R,7aS)-2-fluorotetrahydro-1H-pyrrolizin-7a(5H)-yl)methoxy)pyrido[4,3-d]pyrimidin-4-yl)piperazin-1-yl)(1H-pyrazol-1-yl) methanone], the concentration for half-maximal inhibition (IC50) turned out to be 24 nM on KRas WT; 115 nM on KRas G12S; 76 nM on KRas G12C; 450 nM in experiment [1]; 2350 nM in experiment [2].

As for `Cc1ccn(C(=O)C23CC(CNc4nc(OC[C@@]56CCCN5C[C@H](F)C6)nc5c(F)c(-c6ccc(F)c7sc(N)c(C#N)c67)c(Cl)cc45)(C2)C3)n1` [Example 184, 2-amino-4-(6-chloro-8-fluoro-2-(((2R,7aS)-2-fluorotetrahydro-1H-pyrrolizin-7a(5H)-yl)methoxy)-4-(((3-(3-methyl-1H-pyrazole-1-carbonyl)bicyclo[1.1.1]pentan-1-yl)methyl)amino)quinazolin-7-yl)-7-fluorobenzo[b]thiophene-3-carbonitrile], the IC50 is 27 nM on KRas WT; 6 nM on KRas G12S; 5 nM at KRas G12C; 1500 nM in experiment [3]; 115 nM in experiment [2].

Consider `Cc1ccn(C(=O)[C@H]2CCN(c3nc(OC[C@@]45CCCN4C[C@H](F)C5)nc4c(F)c(-c5ccc(F)c6sc(N)c(C#N)c56)c(Cl)cc34)C[C@H]2C)n1` [Example 185, 2-amino-4-(6-chloro-8-fluoro-2-(((2R,7aS)-2-fluorotetrahydro-1H-pyrrolizin-7a(5H)-yl)methoxy)-4-((cis)-3-methyl-4-(3-methyl-1H-pyrazole-1-carbonyl)piperidin-1-yl)quinazolin-7-yl)-7-fluorobenzo[b]thiophene-3-carbonitrile], for which the half-maximal inhibitory concentration (IC50) at KRas WT turned out to be 6 nM; at KRas G12S, 12 nM; at KRas G12C, 18 nM; in experiment [3], 65 nM; in experiment [2], 250 nM.

As to `N#Cc1c(N)sc2c(F)ccc(-c3c(Cl)cc4c(N5CCN(S(=O)(=O)n6cnnc6)CC5)nc(OC[C@@]56CCCN5C[C@H](F)C6)nc4c3F)c12` [Example 187, 4-(4-(4-((4H-1,2,4-triazol-4-yl)sulfonyl)piperazin-1-yl)-6-chloro-8-fluoro-2-(((2R,7aS)-2-fluorotetrahydro-1H-pyrrolizin-7a(5H)-yl)methoxy)quinazolin-7-yl)-2-amino-7-fluorobenzo[b]thiophene-3-carbonitrile], the IC50 on KRas WT is 11 nM; at KRas G12S, 33 nM; on KRas G12C, 40 nM; in experiment [3], 127 nM; in experiment [2], 1360 nM.

In the case of `CCc1c(F)ccc2cc(O)cc(N3CCc4c(nc(OC[C@@]56CCCN5C[C@H](F)C6)nc4NCCCC(=O)n4ccc(C)n4)C3)c12` [Example 193, 4-((7-(8-ethyl-7-fluoro-3-hydroxynaphthalen-1-yl)-2-(((2R,7aS)-2-fluorotetrahydro-1H-pyrrolizin-7a(5H)-yl)methoxy)-5,6,7,8-tetrahydropyrido[3,4-d]pyrimidin-4-yl)amino)-1-(3-methyl-1H-pyrazol-1-yl) butan-1-one], the IC50 at KRas WT turned out to be 113 nM; at KRas G12S it was 11 nM; on KRas G12C, 5 nM; in experiment [3], 2140 nM; in experiment [2] it was 230 nM.

Turning to `CCc1c(F)ccc2cc(O)cc(N3CCc4c(nc(OC[C@@]56CCCN5C[C@H](F)C6)nc4N(C)CCCC(=O)n4ccc(C)n4)C3)c12` [Example 194, 4-((7-(8-ethyl-7-fluoro-3-hydroxynaphthalen-1-yl)-2-(((2R,7aS)-2-fluorotetrahydro-1H-pyrrolizin-7a(5H)-yl)methoxy)-5,6,7,8-tetrahydropyrido[3,4-d]pyrimidin-4-yl)(methyl)amino)-1-(3-methyl-1H-pyrazol-1-yl) butan-1-one], the half-inhibitory concentration (IC50) at KRas WT was 209 nM; at KRas G12S, 7 nM; at KRas G12C, 4 nM; in experiment [3], 766 nM; in experiment [2] it was 130 nM.

As to `CCc1c(F)ccc2cc(O)cc(N3CCc4c(nc(OC[C@@]56CCCN5C[C@H](F)C6)nc4N(C)CCC(=O)n4ccc(C)n4)C3)c12` [Example 196, 3-((7-(8-ethyl-7-fluoro-3-hydroxynaphthalen-1-yl)-2-(((2R,7aS)-2-fluorotetrahydro-1H-pyrrolizin-7a(5H)-yl)methoxy)-5,6,7,8-tetrahydropyrido[3,4-d]pyrimidin-4-yl)(methyl)amino)-1-(3-methyl-1H-pyrazol-1-yl) propan-1-one], the IC50 on KRas WT was 55 nM; on KRas G12S, 45 nM; on KRas G12C it was 40 nM; in experiment [3], 2200 nM; in experiment [2], above 10000 nM.

Consider `CCc1c(F)ccc2cc(O)cc(N3CCc4c(nc(OC[C@@]56CCCN5C[C@H](F)C6)nc4N4CCC(C(=O)n5ccc(C)n5)C4)C3)c12` (stereo partly drawn) [Example 197, (1-(7-(8-ethyl-7-fluoro-3-hydroxynaphthalen-1-yl)-2-(((2R,7aS)-2-fluorotetrahydro-1H-pyrrolizin-7a(5H)-yl)methoxy)-5,6,7,8-tetrahydropyrido[3,4-d]pyrimidin-4-yl)pyrrolidin-3-yl)(3-methyl-1H-pyrazol-1-yl)methanone], for which the IC50 on KRas WT is 176 nM; at KRas G12S it was 28 nM; on KRas G12C, 21 nM; in experiment [3] it was 4950 nM; in experiment [2] it was 164 nM.

On to `CON(C)C(=O)CCCN(C)c1nc(OC[C@@]23CCCN2C[C@H](F)C3)nc2c(F)c(-c3ccc(F)c4sc(N)c(C#N)c34)c(Cl)cc12` [Example 233, 4-((7-(2-amino-3-cyano-7-fluorobenzo[b]thiophen-4-yl)-6-chloro-8-fluoro-2-(((2R,7aS)-2-fluorotetrahydro-1H-pyrrolizin-7a(5H)-yl)methoxy)quinazolin-4-yl)(methyl)amino)-N-methoxy-N-methylbutanamide], for which the half-maximal inhibitory concentration (IC50) at KRas WT worked out at 11 nM; on KRas G12S it was 8 nM; on KRas G12C it was 6 nM; in experiment [3] it was 83 nM; in experiment [2], 278 nM.

On to `CCc1c(F)ccc2cc(O)cc(-c3ncc4c(N(C)CCCC(=O)N(C)C(C)=O)nc(OC[C@@]56CCCN5C[C@@]5(CC5(F)F)C6)nc4c3F)c12` [Example 293, N-acetyl-4-((2-(((1S,7a'S)-2,2-difluorodihydro-1′H,3′H-spiro[cyclopropane-1,2′-pyrrolizin]-7a′ (5′H)-yl)methoxy)-7-(8-ethyl-7-fluoro-3-hydroxynaphthalen-1-yl)-8-fluoropyrido[4,3-d]pyrimidin-4-yl)(methyl)amino)-N-methylbutanamide], for which the half-maximal inhibitory concentration (IC50) at KRas WT amounted to 219 nM; at KRas G12S, 21 nM; on KRas G12C, 72 nM; in experiment [3] it was 699 nM; in experiment [2], 67 nM.
